Molecules are shown by their SMILES.

The results in this text go back to patent US20070275935A1, “Estratriene Derivatives” (priority 2003, published 2007).

Test [1] has as its system type II airway epithelial cell line, A549. The test can be described thus: Proliferation of A549 cells in response to 5% FCS. Type of test: cell-based, human. The settings on record: Homo sapiens, A549; proliferation in response to 5% FCS; pIC50 of 4.00 = inactive; read-out: A549 PIC50 (converted). As to the method:
The effects of 4NO were evaluated in a number of non-smooth muscle cell types including the type II airway epithelial cell line, A549 (ATCC accession number ATCC CCL-185 Lung carcinoma human) (FIG. 2); the human breast tumour cell line, MCF7, (ATTC accession number ATCC HTB-22 breast adenocarcinoma, human) which expresses the estrogen receptor (FIG. 3); and in bovine aortic endothelial cells (BAEC) (FIG. 4).
The effects of test compounds were examined on proliferation of A549 cells in response to 5% fetal calf serum (FCS). Analogues were pre-incubated with A549 cells for 30 min before the addition of FCS. The incubation continued for 48 h before cell enumeration. Data are expressed as a percentage of the cell number in vehicle treated wells and are presented as the mean and standard error of the mean. Similarly the effects of 2MEO and 4NO on proliferation of MCF7 in response to 5% FCS or epidermal growth factor (EGF, 300 pM) were examined, as were the effects of 2MEO and 4NO on proliferation of BAEC in response to 5% FCS. The incubation parameters were the same as described above and results are presented as the mean and standard error of the mean.
This assay was also used to evaluate the ability of other compounds to inhibit the proliferation of non-smooth muscle cells MCF7 and A549 (described above) in response to 5% FCS. The results of this assay are presented in Table 4 (columns G and H respectively). The potency of the compounds was considerably less in inhibiting proliferation of these cell lines than it was for HASM. These observations support the contention that there are cell type-specific targets for the actions of these compounds. Such assays may also be adopted to examine the effect of other disclosed compounds on these cells or on other non-smooth muscle cells of interest.

In test [2] the test system is Human airway smooth muscle (HASM) cells. Description: Thrombin-induced proliferation of human airway smooth muscle (HASM) cells, cell number after 48 h. Type of test: cell-based. The conditions noted are these: for IC50: Homo sapiens, negative log of the concentration that reduces the thrombin-induced proliferative response by 50%, pIC50 of 4.00 = inactive, read-out: HASM-Thr pIC50 (converted); for HASM- Thr pIC25 / HASM- Thr pIC75: two site model, thrombin-induced proliferation; for HASM- Thr pIC25: first phase (inhibition up to 50%); for HASM- Thr pIC75: second phase (inhibition up to 100%). The procedure: Human airway smooth muscle (HASM) cells were cultured from macroscopically normal bronchi (0.5-2 cm diameter) obtained from lung resection or heart-lung transplant specimens provided by the Alfred Hospital (Melbourne) according to methods published in detail previously (Fernandes et al., 1999).
Approximately 0.1 g of smooth muscle was stripped from the wall of the bronchus for each cell culture. Dissected tissue was immersed in Dulbecco's modified Eagle's medium (DMEM) (Flow Laboratories, Scotland), supplemented with 100 U/mL penicillin G (CSL, Australia) and 100 ug/mL streptomycin (CSL, Australia). The tissue was rinsed in phosphate buffered saline (PBS; Oxoid, England) and the airway smooth muscle was chopped into 2 mm^3 pieces and digested for 2 hours in DMEM containing elastase (0.5 mg/mL: Worthington Biochemical, USA) followed by a 12 hour incubation in DMEM containing collagenase (1 mg/mL) (Worthington Biochemical, USA), at 37° C. with agitation.
The resulting cell suspension was centrifuged and washed three times in phosphate buffered saline (PBS). Following the last centrifugation step, the cells were resuspended in 25 mL of DMEM supplemented with L-glutamine (2 mM: Sigma, USA), penicillin G (100 U/mL), streptomycin (100 μg/mL), amphotericin B (2 μg/mL: Wellcome, UK) and heat-inactivated FCS (10% v/v: CSL, Australia) and seeded into 25 cm^2 culture flasks. The primary isolates were incubated for 7 to 14 days to reach confluence.
Cells were harvested weekly by 10 min exposure to trypsin (0.5%: CSL, Australia) and EDTA (1 mM in PBS: BDH, Australia) and passaged at a 1:3 ratio into 75 cm^2 flasks.
The activity of the compounds has been established in cell culture by exploring their effects on mitogen-induced increases in cell number. We investigated the effects of 2MEO and its analogues, 4NO and 4NOM, on the proliferation of HASM cells in response to the proliferative stimulus of either thrombin of basic fibroblast growth factor (bFGF). Cells were seeded onto 6-well plates at a density of 1.5×10^4 cells cm^2, made quiescent by removal of serum-containing media for 24 hours and then stimulated for 48 h with either thrombin (0.3 U/ml) or bFGF (300 pM). The test compounds were pre-incubated with HASM cells for 30 minutes before the addition of thrombin. At the end of the 48 hour incubation period, cells were detached from the culture plate by trypsin (0.5% w/v in PBS containing 1 mM EDTA), incubated for 5 minutes at ambient temperature in PBS containing 0.5% (w/v) trypan blue, washed twice (2% FCS in PBS), isolated by centrifugation (12,000×g, 5 min) and resuspended in 200 μl 2% FCS in PBS for counting in a haemocytometer chamber.
Data are expressed as a percentage of the cell number in vehicle treated wells and are presented as the mean and standard error of the mean.
The potency of the compounds in regulating thrombin-induced proliferation of human airway smooth muscle (HASM) was assessed in cells maintained in culture as described above. The potencies are presented as pIC50 values (Column A of Table 4) denoting the negative log of the concentration that reduces the proliferative response by 50%. […] When the single phase model was determined to be more appropriate, the values of pIC25 and pIC75 were not calculated or shown in the table.

For test [3], the system named is GM-CSF production by Human Airway Smooth Muscle Cells. Description: Interleukin-1α-mediated GM-CSF production by HASM cells (ELISA). Type of test: cell-based. The conditions noted are these: inhibition of interleukin-1α (1 ng/ml)-mediated GM-CSF production; concentration not given; * not defined. Background: ELISA stands for enzyme-linked immunosorbent assay.
The target of test [4] is T1, Estrogen Receptor (ER) (Rattus norvegicus, UniProt P06211).
T1 construct: using rat uterine cytosol as a source of ER; from tissue; host or cells: rat uterus, cytosol fraction (30000 x g supernatant)
T1 sequence (P06211 1-600): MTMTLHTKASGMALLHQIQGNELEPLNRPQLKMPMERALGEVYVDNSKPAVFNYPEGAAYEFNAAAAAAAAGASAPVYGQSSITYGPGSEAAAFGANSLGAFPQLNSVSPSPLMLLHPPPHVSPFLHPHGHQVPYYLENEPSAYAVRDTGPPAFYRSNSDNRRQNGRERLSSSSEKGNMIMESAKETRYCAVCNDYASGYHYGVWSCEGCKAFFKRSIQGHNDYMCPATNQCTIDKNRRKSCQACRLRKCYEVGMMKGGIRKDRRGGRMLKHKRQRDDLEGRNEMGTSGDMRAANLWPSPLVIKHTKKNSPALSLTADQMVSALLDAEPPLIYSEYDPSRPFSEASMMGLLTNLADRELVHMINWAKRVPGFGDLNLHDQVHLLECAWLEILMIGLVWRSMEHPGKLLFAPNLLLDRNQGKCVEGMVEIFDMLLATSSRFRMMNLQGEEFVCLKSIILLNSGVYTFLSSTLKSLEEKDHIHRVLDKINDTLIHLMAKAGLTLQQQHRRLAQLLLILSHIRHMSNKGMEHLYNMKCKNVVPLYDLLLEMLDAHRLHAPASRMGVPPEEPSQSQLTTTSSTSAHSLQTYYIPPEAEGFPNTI
Description: Estrogen receptor binding assay, 3H-estradiol displacement from rat uterine cytosol. The settings on record: 3H-estradiol displacement, cytosolic preparations of rat uterus; pIC50 of 4.00 = inactive; read-out: ER-RLB pIC50 (converted). As to the method: Uteri (6-10 per batch) were isolated from Brown Norway rats (250-350g), washed free from blood in saline and homogenised in 10 mM Tris buffer (pH 7.4, 1.5 mM EDTA, 10% w/v glycerol, 1 mM phenylmethylsulfonylfluoride) using an Ultra Turrax homogeniser for 3 by 15 s bursts with intervals of 1 min on ice.
Nuclear material and cellular debris were removed by centrifugation at 750×g at 4° C. for 10 min (Sorvall RT7); the cytosol component was prepared by centrifugation at 30000×g for 120 min at 4° C. in a Beckman JM1 centrifuge. The cytosol was diluted to approximately 1 mg/ml protein (rat uterine extract) determined using the Bradford method (Biorad).
Separation of bound from free radioligand was achieved by the addition of 500 μL of dextran-coated charcoal (400 mg dextran clinical grade C and 2g of charcoal, Norit A in 100 mL of Tris buffer) and centrifugation at 4° C. in a Sorval RT7 at 2000×g for 10 min.

As to `COc1cc2c(cc1O)/C(=N/OCc1ccc(C(C)C)cc1)C[C@@H]1[C@@H]2CC[C@]2(C)/C(=N/O)CC[C@@H]12` [CP-DM-4-77, 2-methoxy-6-(4-isopropylbenzyloxy)iminoestrone-17-oxime], the IC50 is 3.16 µM in test [1] and 3.02 µM in test [2]. In addition, the “HASM - GM-CSF” value in test [3] is given as 26 ± 13.
On to `COc1cc2c(cc1O)/C(=N/OCc1ccccc1[N+](=O)[O-])C[C@@H]1[C@@H]2CC[C@]2(C)/C(=N/O)CC[C@@H]12` [CP-DM-3-117, 2-methoxy-6-(2-nitrobenzyloxy)iminoestrone-17-oxime], for which the IC50 was 5.13 µM in test [1] and 6.46 µM in test [2].
For the molecule `COc1cc2c(cc1O)/C(=N/OCc1ccc(C)cc1)C[C@@H]1[C@@H]2CC[C@]2(C)[C@@H](O)CC[C@@H]12` [CP-DM-4-78, 2-methoxy-6-(4-methylbenzyloxy)iminoestradiol], the IC50 in test [4] is 0.229 µM; in test [1], 10 µM; in test [2] it was 1 µM. Also, the “HASM - GM-CSF” value in test [3] is recorded as 35 ± 9*.
Consider `COc1cc2c(cc1O)/C(=N/OCc1ccc([N+](=O)[O-])cc1)C[C@@H]1[C@@H]2CC[C@]2(C)[C@@H](OC(C)=O)CC[C@@H]12` [CP-DM-4-91, 2-Methoxy-6-(4-nitrobenzyloxy)iminoestradiol-17-acetate], for which the IC50 in test [1] was 10 µM; in test [2] it was 6.31 µM.
On to `COc1ccc(CO/N=C2\C[C@@H]3[C@H](CC[C@]4(C)[C@@H](O)CC[C@@H]34)c3cc(OC)c(O)cc32)cc1` [CP-DM-4-5, 2-methoxy-6-(4-methoxybenzyloxy)-iminoestradiol], for which, in test [4], the IC50 was 0.794 µM. The IC50 in test [1] is 5.01 µM. Besides, in test [2], the IC50 is 0.135 µM, the “HASM- Thr pIC25” value is 10.46 and the “HASM- Thr pIC75” value came out at 5.27.
For `COc1cc2c(cc1O)/C(=N/OCc1cc(F)cc(F)c1)C[C@@H]1[C@@H]2CC[C@]2(C)/C(=N/O)CC[C@@H]12` [CP-DM-4-36, 6-(3,5-difluorobenzyloxy)imino-2-methoxyestrone-17-oxime] the same measures were 20 µM, 10 µM, 0.129 µM, 7.91 and 5.69.
For `COc1cc2c(cc1O)/C(=N/OCc1cccc([N+](=O)[O-])c1)C[C@@H]1[C@@H]2CC[C@]2(C)[C@@H](O)CC[C@@H]12` [CP-DM-3-106, 2-methoxy-6-(3-nitrobenzyloxy)iminoestradiol], in that order: 0.178 µM, 7.59 µM, 0.0251 µM, 9.35 and 6.36.
As to `COc1cc2c(cc1O)/C(=N/OCc1ccc(OC(F)(F)F)cc1)C[C@@H]1[C@@H]2CC[C@]2(C)/C(=N/O)CC[C@@H]12` [CP-DM-4-68, 2-methoxy-6-(4-trifluoromethoxybenzyloxy)iminoestrone-17-oxime], in test [2], the IC50 is 1.82 µM, the “HASM- Thr pIC25” value is recorded as 7.91 and the “HASM- Thr pIC75” value stood at 5.00. Also, in test [3], the “HASM - GM-CSF” value is 8 ± 13.
With `COc1cc2c(cc1O)CC[C@@H]1[C@@H]2CC[C@]2(C)/C(=N/OCc3ccc([N+](=O)[O-])cc3)CC[C@@H]12` [CP-DM-3-103, 2-methoxyestrone-17-(4-nitrobenzyl)oxime], the IC50 in test [1] was 40.7 µM; in test [2], 3.16 µM. Also, the “HASM - GM-CSF” value in test [3] is “either did not inhibit or produced less inhibition”.
Consider `COc1cc2c(cc1O)/C(=N/OCc1cccc([N+](=O)[O-])c1)C[C@@H]1[C@@H]2CC[C@]2(C)/C(=N/O)CC[C@@H]12` [CP-DM-3-105, 2-methoxy-6-(3-nitrobenzyloxy)iminoestrone-17-oxime], for which the IC50 in test [4] is 25.1 µM. The IC50 in test [1] was 5.13 µM. Besides, in test [2], the IC50 was 0.1 µM, the “HASM- Thr pIC25” value was determined as 8.85 and the “HASM- Thr pIC75” value is recorded as 5.59.
